{"source": "patent US5229109A", "about": "“Low toxicity interleukin-2 analogues for use in immunotherapy” (priority 1992, dated 1993)", "key": {"IL-2 receptor p75": {"biological_target": "T1, IL-2 receptor p75 (Homo sapiens, UniProt P14784)", "T1 construct": "Each assay contained approximately 6×10^5 cells; endogenous in cells", "T1 sequence (P14784 27-551)": "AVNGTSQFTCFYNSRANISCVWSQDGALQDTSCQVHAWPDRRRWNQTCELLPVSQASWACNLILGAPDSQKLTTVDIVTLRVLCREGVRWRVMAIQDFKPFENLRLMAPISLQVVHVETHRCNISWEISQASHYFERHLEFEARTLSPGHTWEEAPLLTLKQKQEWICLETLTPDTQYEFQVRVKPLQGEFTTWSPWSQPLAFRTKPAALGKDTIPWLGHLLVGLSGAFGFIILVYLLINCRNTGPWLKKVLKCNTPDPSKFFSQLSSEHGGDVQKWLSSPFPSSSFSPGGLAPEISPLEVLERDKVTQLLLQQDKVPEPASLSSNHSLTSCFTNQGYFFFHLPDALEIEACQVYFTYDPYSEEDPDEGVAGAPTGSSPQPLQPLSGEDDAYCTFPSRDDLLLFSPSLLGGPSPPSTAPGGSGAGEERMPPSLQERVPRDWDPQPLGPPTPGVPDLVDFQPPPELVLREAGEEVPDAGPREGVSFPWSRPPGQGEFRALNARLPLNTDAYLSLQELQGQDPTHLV", "T1 sequence (P31785 23-369 partner)": "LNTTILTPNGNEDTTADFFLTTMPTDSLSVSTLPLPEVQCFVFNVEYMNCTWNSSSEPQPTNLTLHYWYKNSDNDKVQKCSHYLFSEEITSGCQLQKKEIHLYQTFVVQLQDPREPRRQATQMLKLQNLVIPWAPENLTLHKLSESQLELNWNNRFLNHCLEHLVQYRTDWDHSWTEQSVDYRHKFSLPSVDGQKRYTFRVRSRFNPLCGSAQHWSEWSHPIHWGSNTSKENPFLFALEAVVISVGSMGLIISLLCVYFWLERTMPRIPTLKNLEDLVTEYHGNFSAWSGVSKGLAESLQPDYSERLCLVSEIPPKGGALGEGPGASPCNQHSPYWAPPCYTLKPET", "experiment": "IL-2 specific binding assay, intermediate affinity receptor", "procedure": "The cells were then incubated for 1 hour at 37° C. and the washing procedure was repeated three times. […] Nonspecific binding was determined by inclusion of 50 nM unlabeled human rIL-2 in the assay. Incubations were carried out in duplicate or triplicate for 20 minutes at 37° C."}, "[1]": {"biological_target": "T2, intermediate receptor p75 (Homo sapiens, UniProt P14784)", "T2 sequence (P14784 27-551)": "T1 sequence (P14784 27-551)", "T2 sequence (P31785 23-369 partner)": "T1 sequence (P31785 23-369 partner)", "conditions": "Sauve et al., 1991; cited from earlier work"}, "[2]": {"tested_on": "peripheral blood mononuclear cells (TNF-α secretion)", "experiment": "TNF-α secretion by PBMC, ELISA of LAK culture supernatants", "format": "cell-based, human", "conditions": "for TNF-α decreased: maximal decrease vs native IL-2, supernatants at 24 hour intervals up to 7 days", "procedure": "(§1) The abilities of the same concentrations of IL-2 and the analogues to stimulate peripheral blood mononuclear cells to secrete IL-1β and TNF-α in vitro were first compared. At 24 hour intervals up to 7 days, the LAK culture supernatants from the above-described experiment were collected and tested for IL-1β and TNF-α content using ELISA methodology. Commercially available ELISA kits were purchased from R & D Systems (TNF-α and TNF-β ), Immunotech (IL-1α and IL-1β), and Endogen (IFN-γ). The ELISAs were performed according to the protocols supplied by the manufacturer.\n(§2) Fresh peripheral blood mononuclear cells (PBMC) obtained from leukopharesis of normal human donors were isolated over a Ficoll-Hypaque gradient. […] Non-adherent cells were tested for cytotoxicity against Daudi targets by a 4 hour ^51 Cr release assay, with specific lysis being presented as the mean of triplicate values. Cell-free supernatants from 3 day PBMC cultures were analyzed by ELISA for cytokine content."}, "Daudi targets": {"tested_on": "Daudi targets", "experiment": "LAK generation, 4 hour 51Cr release cytotoxicity assay", "format": "cell-based, human", "conditions": "100:1 effector:target ratio; 0.5 nM native IL-2 or 1 nM mutants", "procedure": "The abilities of optimal concentrations of IL-2 and the analogues to stimulate peripheral blood mononuclear cells to generate lymphokine activated killing (LAK) in vitro were next compared.\nas §2"}, "[3]": {"tested_on": "peripheral blood mononuclear cells (IL-1β secretion)", "experiment": "IL-1β secretion by PBMC, ELISA of LAK culture supernatants", "format": "cell-based, human", "conditions": "for IL-1β secretion decreased: maximal decrease vs native IL-2, supernatants at 24 hour intervals up to 7 days", "procedure": "as §1, §2"}, "[4]": {"biological_target": "T3, low affinity receptor p55 (Homo sapiens, UniProt P01589)", "T3 sequence (P01589 22-272)": "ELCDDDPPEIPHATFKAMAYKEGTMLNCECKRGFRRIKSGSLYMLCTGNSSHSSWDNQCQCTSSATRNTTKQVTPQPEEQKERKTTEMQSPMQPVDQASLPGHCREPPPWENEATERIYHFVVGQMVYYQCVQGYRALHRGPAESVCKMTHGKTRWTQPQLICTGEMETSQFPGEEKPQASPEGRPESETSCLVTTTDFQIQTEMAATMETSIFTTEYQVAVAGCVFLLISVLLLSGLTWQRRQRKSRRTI", "conditions": "Sauve et al., 1991; cited from earlier work"}, "[5]": {"tested_on": "IL-2 receptor p55 on PBMC", "experiment": "FACS analysis of p55 expression on cultured PBMC", "format": "cell-based, human", "conditions": "cultures stimulated for 72 hours", "procedure": "Cultured PBMC were washed with PBS, 1% bovine serum albumin (BSA), and 0.1% sodium azide. To approximately one million cells, FITC-labelled monoclonal antibody against IL-2 receptor p55 or a non-specific control mouse IgG (Becton-Dickinson) was added. Following incubation for 30 minutes, the cells were washed twice using a Sorvall cell washer 2L, then fixed in PBS and 1% paraformaldehyde. The cells were then analyzed on Becton-Dickinson FACScan and results were presented as per cent of gated cells positive for p55 after subtraction of non-specific background fluorescence."}, "[6]": {"conditions": "all time points, p<0.05, 3-way ANOVA"}}, "data": [{"substance": "F42K: recombinant human IL-2 analogue, Phenylalanine (F) at position 42→Lysine (K)", "values": [{"measurement": "ability to bind IL-2 receptor p75", "setting": "IL-2 receptor p75", "result": "maintain their ability to bind"}, {"measurement": "affinity for the intermediate receptor p75", "setting": "[1]", "result": "maintained their affinity"}, {"measurement": "TNF-α compared to that produced in response to native IL-2", "setting": "[2]; [6]", "result": "significantly decreased"}, {"measurement": "TNF-α decreased", "setting": "[2]", "result": "≤ 77", "unit": "%"}, {"measurement": "% maximal specific lysis", "setting": "Daudi targets", "result": 54, "unit": "%"}, {"measurement": "IL-1β compared to that produced in response to native IL-2", "setting": "[3]; [6]", "result": "significantly decreased"}, {"measurement": "IL-1β secretion decreased", "setting": "[3]", "result": "up to 43%"}, {"measurement": "binding to the low affinity receptor p55", "setting": "[4]", "result": "could no longer bind"}, {"measurement": "percentage of cells expressing p55", "setting": "[5]", "result": 30, "unit": "%"}, {"measurement": "percentage of cells expressing p55 doubled", "setting": "[5]", "result": "doubled"}]}, {"substance": "R38A", "values": [{"measurement": "ability to bind IL-2 receptor p75", "setting": "IL-2 receptor p75", "result": "maintain their ability to bind"}, {"measurement": "affinity for the intermediate receptor p75", "setting": "[1]", "result": "maintained their affinity"}, {"measurement": "TNF-α decreased", "setting": "[2]", "result": "≤ 66", "unit": "%"}, {"measurement": "% maximal specific lysis", "setting": "Daudi targets", "result": 55, "unit": "%"}, {"measurement": "IL-1β secretion decreased", "setting": "[3]", "result": "≤ 28", "unit": "%"}, {"measurement": "binding to the low affinity receptor p55", "setting": "[4]", "result": "could no longer bind"}]}]}
